Results taken from patent US20040241754A1, “Modulating neuronal plasticity” (The Salk Institute for Biological Studies, priority 2003, published 2004).
“Also recorded” adds a separate entry of the source. Ends that are not written are not given here.

Key:
[1] = tested on: mossy fiber synapses of hippocampal CA3 pyramidal neurons; assay: Mossy fiber LTP, whole-cell patch clamp in hippocampal slices; format: cell-based, mice
Protocol: The role of the GluR2 subunit in LTP at mossy fiber terminals was evaluated in whole cell patch clamp experiments using hippocampal CA3 pyramidal neurons. Briefly, transverse hippocampal slices (350 μm) were made from P12-18 mice (strain 129SvEv) as previously described (Contractor et al., Neuron 29, 209-16. (2001)). Slices were transferred to a recording chamber, and whole-cell patch clamp recordings made from visually identified pyramidal cells in the CA3 region of the hippocampus. The recording electrode (i.e., patch electrode) is filled with an “internal” solution described below. A seal between the glass of the electrode and the membrane of the cell is made. The seal is then “broken through” by pushing the electrode through the membrane to gain low resistance access to the cell interior and enable voltage clamping of the cell membrane. This also allows dialysis of the cell with test reagents such as peptides and antibodies. A stimulating electrode is attached to a current source and allows current to stimulate action potentials while a reference electrode is placed in the recording bath. The composition of the internal solution was: 95 mM CsF, 25 mM CsCl, 10 mM Cs-HEPES, 10 mM Cs-EGTA, 2 mM NaCl, 2 mM Mg-ATP, 10 mM QX-314, 5 mM TEA-Cl, 5 mM 4-AP, pH adjusted to 7.3 with CsOH.
Peptides were added directly to the internal solution on the day of the experiment from frozen stocks in protease inhibitors made up in phosphate buffered saline (PBS). To avoid leakage of peptides or antibodies into the extracellular space, pipette tips were filled with normal internal solution and then the pipette was backfilled with peptide/antibody containing internal fluid. The final concentration of peptides was 50 μM in all experiments. The final concentration of protease inhibitors were: bestatin 2 μg/ml, leupeptin 25 ng/ml, pepstatin 35 ng/ml, aprotinin 100 ng/ml.
In control experiments where peptides were not included, internal solutions were made up in exactly the same way with protease inhibitors in PBS but lacking any added peptide. Antibodies were made up in PBS stock and added directly to the internal solution at a final concentration of 20 μg/ml. The pH and osmolarity of all internal solutions were checked before use. Series resistances (Rs) were generally <10M and were continuously monitored throughout the duration of the experiment. […] Experiments using mutant mice were performed with heterozygous breedings blind to the genotype of the animal.
Mossy fiber EPSCs were evoked with a monopolar glass electrode positioned in the stratum lucidum. EPSCs were evaluated using a 40 ms interval between recordings. All recordings were made in the continuous presence of bicuculline (10 μM), picrotoxin (50 μM) and the NMDA receptor antagonist D-AP5 [D(-)-2-Amino-5-phosphonopentanoic acid; 50 μM]. The group II mGluR agonist, LCCG-1 (10 μM), which selectively depresses mossy fiber transmission, was applied at the end of each experiment. LTP was induced by tetanic stimulation comprising three 1 s stimulations (100 Hz) with a 10 s interval. Data are presented as mean±SEM. Parameters were compared using the Student's unpaired t-test where not specified, and the K-S test, p<0.05 was considered significant.
Cumulative probability is determined by ranking the EPSC data set from the highest to the lowest value from 20 to 30 minutes post tetanization. Each point is graphed with its corresponding percentile. […] The lowest LTP value was about 40% signified by the lowest point on the 1 st graph (open circles) and the largest LTP was about 160%.

GRIP PDZ4-6 = target: T1, GRIP PDZ4-6 (Rattus norvegicus, UniProt P97879); assay: Competitive binding of 35S-EphB2 to His-GRIP-PDZ4-6; conditions: 35S-EphB2 50 nM; fitted to the Hill equation; read-out: Ki, displacement of 35S-EphB2 binding to His-GRIP-PDZ 4-6
T1 construct: corresponding to GRIP1 (amino acid 448-792); made in house; host or cells: E. coli BL21
T1 sequence (P97879 448-792): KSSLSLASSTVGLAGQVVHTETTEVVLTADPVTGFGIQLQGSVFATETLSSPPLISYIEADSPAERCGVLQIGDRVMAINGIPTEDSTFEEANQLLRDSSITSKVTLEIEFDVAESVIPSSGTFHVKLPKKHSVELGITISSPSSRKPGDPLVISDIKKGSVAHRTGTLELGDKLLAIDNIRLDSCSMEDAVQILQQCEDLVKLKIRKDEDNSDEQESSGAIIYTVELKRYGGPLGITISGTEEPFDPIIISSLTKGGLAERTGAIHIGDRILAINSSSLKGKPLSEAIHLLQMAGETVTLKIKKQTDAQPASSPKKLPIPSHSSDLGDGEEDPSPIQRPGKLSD
Protocol: A competitive binding assay was prepared to determine if the LTP inhibitory effects of the GluR2ct peptide were mediated through disruption of binding between Eph receptors and PDZ domain 6 of GRIP (Torres et al., Neuron 21, 1453-63. (1998)) as opposed to disruption of binding between the GluR2 subunit and the GluR2-binding PDZ 4 and 5 domains of GRIP (Dong et al., Nature 386, 279-84. (1997)). For this purpose, a binding assay was established between GRIP PDZ domain fragments (His-GRIP-PDZ4-6) and an EphB2 carboxy terminal fusion protein labeled with ^35S-methionine (^35S-EphB2).
(§1) Briefly, the carboxy terminal region of EphB2 corresponding to mouse EphB2 receptor (amino acid 930-993) was generated by PCR from mouse brain library and subcloned into pGEX2TK (Pharmacia). The GRIP(PDZ4-6) construct, corresponding to GRIP1 (amino acid 448-792) was obtained by PCR from an adult rat hippocampal library and subcloned into pRSET vector. E coli (strain BL21) were transformed with His-GRIP(PDZ4-6) and GST-EphB2 and protein production induced with IPTG. GST-EphB2 protein was purified on glutathionine beads and ^35S-EphB2 cleaved from GST with thrombin (1 U/μg). GRIP(PDZ4-6) protein was purified on Ni-NTA agarose, and eluted with imadazole. ^35S-EphB2 (50 nM) was incubated with (15 μg) of His-GRIP(PDZ4-6) protein in PBS buffer with protease inhibitors for 2 hrs at 22° C. in the absence or presence of peptides. ^35S-EphB2 binding to His-GRIP(PDZ4-6) was determined after a 45 min incubation with Ni-NTA agarose and vacuum filtration onto Whatman GFB filter circles (pretreated with 3% BSA). Filters were washed with ice-cold PBS buffer, allowed to equilibrate overnight in ECOLUME scintillation cocktail (ICN pharmaceuticals, Irvine Calif.), and specific counts measured in a scintillation counter. Non-specific binding was defined as the residual binding measured in the absence of His-GRIP(PDZ4-6).

GRIP PDZ 6 domain = target: T2, GRIP PDZ 6 domain (Rattus norvegicus, UniProt P97879); assay: Competitive binding of 35S-EphB2 to His-GRIP-PDZ6
T2 construct: a GRIP fragment containing only the PDZ 6 domain; made in house; host or cells: E. coli BL21 (inferred from the PDZ4-6 construct)
T2 sequence (P97879 672-754 limits assumed): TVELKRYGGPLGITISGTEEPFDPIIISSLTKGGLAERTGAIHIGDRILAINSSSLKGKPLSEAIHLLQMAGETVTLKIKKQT
Excerpt: as §1, with “His-GRIP(PDZ4-6). […]” for “His-GRIP(PDZ4-6).”

His-GRIP-PDZ6 = target: T3, His-GRIP-PDZ6 (UniProt P97879 672-754); assay: displacement of ^35S-EphB2 from His-GRIP-PDZ6
T3 construct: domain: PDZ 6; also called GRIP fragment containing only the PDZ 6 domain; PDZ domain 6 of GRIP; not shown: His tag
T3 sequence (looked up): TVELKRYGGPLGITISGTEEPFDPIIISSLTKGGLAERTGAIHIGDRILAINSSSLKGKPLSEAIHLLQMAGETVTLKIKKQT

His-GRIP(PDZ4-6) = target: T4, His-GRIP(PDZ4-6) (rat, UniProt P97879 448-792); assay: displacement of ^35S-EphB2 (50 nM) from His-GRIP-PDZ4-6, Hill fit
T4 construct: range 448-792; not shown: His tag and vector residues from pRSET
T4 sequence (looked up): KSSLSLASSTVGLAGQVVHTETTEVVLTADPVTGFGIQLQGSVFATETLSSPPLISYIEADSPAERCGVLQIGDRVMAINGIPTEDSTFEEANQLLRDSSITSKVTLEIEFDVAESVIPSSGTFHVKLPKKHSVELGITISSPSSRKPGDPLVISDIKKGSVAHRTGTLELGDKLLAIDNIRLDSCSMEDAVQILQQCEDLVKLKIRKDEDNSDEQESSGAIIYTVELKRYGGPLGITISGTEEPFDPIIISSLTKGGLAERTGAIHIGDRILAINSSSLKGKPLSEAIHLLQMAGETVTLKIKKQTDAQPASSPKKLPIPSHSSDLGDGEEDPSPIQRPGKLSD

EphA8 = target: T5, EphA8 (Mus musculus, UniProt O09127); conditions: read-out: Kd for binding to EphA8; cited from earlier work
T5 sequence (O09127 27-1004): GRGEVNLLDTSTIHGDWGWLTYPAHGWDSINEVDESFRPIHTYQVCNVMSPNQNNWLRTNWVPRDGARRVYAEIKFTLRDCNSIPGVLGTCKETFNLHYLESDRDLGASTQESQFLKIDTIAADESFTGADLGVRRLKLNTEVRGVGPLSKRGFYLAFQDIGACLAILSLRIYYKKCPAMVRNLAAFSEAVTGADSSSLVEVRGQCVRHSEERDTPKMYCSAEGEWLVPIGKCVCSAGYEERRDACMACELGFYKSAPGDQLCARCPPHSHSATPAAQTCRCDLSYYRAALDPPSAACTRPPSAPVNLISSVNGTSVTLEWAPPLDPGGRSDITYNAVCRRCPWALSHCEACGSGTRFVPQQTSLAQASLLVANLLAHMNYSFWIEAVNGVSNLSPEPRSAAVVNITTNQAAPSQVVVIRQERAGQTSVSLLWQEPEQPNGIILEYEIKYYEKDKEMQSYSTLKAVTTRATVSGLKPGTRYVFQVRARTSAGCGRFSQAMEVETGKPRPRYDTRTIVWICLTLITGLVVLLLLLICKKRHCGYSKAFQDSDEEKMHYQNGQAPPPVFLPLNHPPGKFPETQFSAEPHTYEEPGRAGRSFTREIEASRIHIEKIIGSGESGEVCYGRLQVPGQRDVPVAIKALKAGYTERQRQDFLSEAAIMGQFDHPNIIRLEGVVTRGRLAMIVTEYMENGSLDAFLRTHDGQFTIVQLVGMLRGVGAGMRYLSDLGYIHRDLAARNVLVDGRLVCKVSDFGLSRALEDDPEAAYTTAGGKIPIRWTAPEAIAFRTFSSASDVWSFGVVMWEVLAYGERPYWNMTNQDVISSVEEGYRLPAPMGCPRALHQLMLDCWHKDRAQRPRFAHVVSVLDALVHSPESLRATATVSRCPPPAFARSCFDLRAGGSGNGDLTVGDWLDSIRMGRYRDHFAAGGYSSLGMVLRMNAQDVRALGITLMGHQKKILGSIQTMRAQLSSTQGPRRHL

EphA3 = conditions: read-out: Kd for binding to EphA3; cited from earlier work
EphA4 = EphA4 (Homo sapiens, UniProt P54764); conditions: read-out: Kd for binding to EphA4; cited from earlier work
EphA4, sequence (P54764 20-986, species assumed): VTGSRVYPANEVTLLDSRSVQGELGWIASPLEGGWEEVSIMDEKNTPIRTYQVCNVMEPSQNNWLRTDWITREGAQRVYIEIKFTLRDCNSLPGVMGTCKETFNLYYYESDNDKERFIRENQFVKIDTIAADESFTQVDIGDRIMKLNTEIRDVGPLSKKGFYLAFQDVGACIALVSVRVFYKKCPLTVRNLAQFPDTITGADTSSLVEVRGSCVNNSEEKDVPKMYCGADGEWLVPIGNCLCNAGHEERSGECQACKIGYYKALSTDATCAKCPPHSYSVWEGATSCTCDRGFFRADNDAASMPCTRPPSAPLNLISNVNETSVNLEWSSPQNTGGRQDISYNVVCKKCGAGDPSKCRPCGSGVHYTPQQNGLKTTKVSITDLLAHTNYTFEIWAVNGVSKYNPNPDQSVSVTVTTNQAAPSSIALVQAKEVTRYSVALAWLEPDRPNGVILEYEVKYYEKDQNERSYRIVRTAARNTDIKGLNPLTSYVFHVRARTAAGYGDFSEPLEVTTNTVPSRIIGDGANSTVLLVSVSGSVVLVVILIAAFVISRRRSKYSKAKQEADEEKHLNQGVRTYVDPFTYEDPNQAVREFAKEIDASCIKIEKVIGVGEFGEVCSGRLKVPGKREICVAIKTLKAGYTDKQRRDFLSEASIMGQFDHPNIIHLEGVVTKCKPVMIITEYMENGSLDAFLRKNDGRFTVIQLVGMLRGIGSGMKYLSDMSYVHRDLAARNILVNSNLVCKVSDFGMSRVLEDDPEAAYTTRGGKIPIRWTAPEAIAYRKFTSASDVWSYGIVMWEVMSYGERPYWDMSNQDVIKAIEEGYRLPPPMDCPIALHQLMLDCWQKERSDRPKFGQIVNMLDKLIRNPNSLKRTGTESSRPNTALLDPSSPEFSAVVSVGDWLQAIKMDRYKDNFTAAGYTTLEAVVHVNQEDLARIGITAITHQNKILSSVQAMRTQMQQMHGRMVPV

EphB1 = conditions: read-out: Kd for binding to EphB1; cited from earlier work
[2] = peptide 50 μM in patch electrode, 40 ms interval

NVYGIESVKI [GluR2ct, Asn-Val-Tyr-Gly-Ile-Glu-Ser-Val-Lys-Ile]
LTP (potentiation of the EPSC after tetanic stimulation) ([1]; peptide 50 μM in patch electrode (postsynaptic), 25 to 30 minutes after tetanic stimulation): 140±11%
LTP PPR (paired pulse ratio after LTP induction) [1, 2]: 2.5±0.12
control PPR (paired pulse ratio before LTP induction) [1, 2]: 2.8±0.14
PTP (post-tetanic potentiation) ([1]; peptide 50 μM in patch electrode, immediately following tetanic stimulation): 510±67%
effect on basal synaptic transmission / basal EPSC amplitudes ([1]; peptide in patch electrode): small effect on basal synaptic transmission in some neurons
paired pulse ratio after LTP induction versus pretetanic ([1]; peptide in patch electrode): no significant difference after induction of LTP
effect on tetanus induced LTP ([1]; peptide in patch electrode (postsynaptic)): little potentiation was observed; also recorded: significantly less potentiation; also recorded: inhibit mossy fiber hippocampal CA3 neuronal LTP
Ki (GRIP PDZ4-6): 106 nM
displacement of EphB2 from / binding to GRIP PDZ domain 6 (GRIP PDZ 6 domain): binds directly to PDZ domain 6 of GRIP; also recorded: can displace EphB2
Ki (GRIP PDZ 6 domain; read-out: Ki, displacement of 35S-EphB2 binding to His-GRIP-PDZ6): 155 nM

NVYGIESVKI (also called GluR2ct; R2ct) [GluR2 carboxy terminal peptide]
Ki (His-GRIP-PDZ6): 155 nM
Ki (His-GRIP(PDZ4-6)): 106 nM

B1: ephrin-A2: a 213 amino acid protein; ephrin ligand (protein, UniProt O43921 1-213, looked up)
chain: MAPAQRPLLPLLLLLLPLPPPPFARAEDAARANSDRYAVYWNRSNPRFHAGAGDDGGGYTVEVSINDYLDIYCPHYGAPLPPAERMEHYVLYMVNGEGHASCDHRQRGFKRWECNRPAAPGGPLKFSEKFQLFTPFSLGFEFRPGHEYYYISATPPNAVDRPCLRLKVYVRPTNETLYEAPEPIFTSNNSCSSPGGCRLFLSTIPVLWTLLGS
modifications: full-length
notes: a 213 amino acid protein; ephrin ligand
Kd (EphA8): 1.3 nM
Kd (EphA3): 1 nM
Kd (EphA4): 10 nM

B2: ephrin-A4: a 201 amino acid polypeptide; ephrin ligand (protein, UniProt P52798 26-170, looked up)
Ephrin-A4: LRHVVYWNSSNPRLLRGDAVVELGLNDYLDIVCPHYEGPGPPEGPETFALYMVDWPGYESCQAEGPRAYKRWVCSLPFGHVQFSEKIQRFTPFSLGFEFLPGETYYYISVPTPESSGQCLRLQVSVCCKERKSESAHPVGSPGES
Kd (EphA4): 5 nM
Kd (EphB1): 20 nM

B3: ephrin-B1: a 45 kDa, 346 amino acid glycosylated polypeptide; ephrin ligand (protein, UniProt P98172 1-346, looked up)
chain: MARPGQRWLGKWLVAMVVWALCRLATPLAKNLEPVSWSSLNPKFLSGKGLVIYPKIGDKLDIICPRAEAGRPYEYYKLYLVRPEQAAACSTVLDPNVLVTCNRPEQEIRFTIKFQEFSPNYMGLEFKKHHDYYITSTSNGSLEGLENREGGVCRTRTMKIIMKVGQDPNAVTPEQLTTSRPSKEADNTVKMATQAPGSRGSLGDSDGKHETVNQEEKSGPGASGGSSGDPDGFFNSKVALFAAVGAGCVIFLLIIIFLTVLLLKLRKRHRKHTQQRAAALSLSTLASPKGGSGTAGTEPSDIIIPLRTTENNYCPHYEKVSGDYGHPVYIVQEMPPQSPANIYYKV
modifications: full-length
notes: a 45 kDa, 346 amino acid glycosylated polypeptide; ephrin ligand
Kd (EphA3): 350 nM
Kd (EphB1): 0.925 nM
